Source: US7355024B2, “Regulatory sequences for modulation of INGAP expression and reporter constructs” (GMP Endotherapeutics, Inc., priority 2002, dated 2008)

Legend:
[1] = test system: hamster INGAP 5′-regulatory region; experiment: β-galactosidase reporter assay with hamster INGAP 5′-regulatory region fragments in transfected 293T cells; assay type: cell-based; conditions: human 293T cells
Source text: Promoter analysis of INGAP identified a number of potential promoter-proximal regulatory sites including the consensus transcription factor binding sites; cAMP response element (CRE), AP-1 and STAT. Promoter-fragment reporter-gene constructs were transiently transfected into 293T cells and co-transfection of secretory alkaline phosphatase was used to normalize for transfection efficiency.
(§1) Reporter constructs containing INGAP 5′-regulatory region fragments 2—3sP (SEQ ID NO: 37), 2—3dP (SEQ ID NO: 38), 2—3pP (SEQ ID NO: 36), 14—3P (SEQ ID NO: 34), 16—3P (SEQ ID NO: 31), or 19—3P (SEQ ID NO: 23) were transfected into human cells. The pβGal-Basic plasmid without the hamster INGAP DNA was also transfected into human cells as a control to measure the level of endogenous reporter activity. Two days following transfection, the cells were treated with PMA for 24 hours or were untreated. To determine the level of promoter activity, the amount of β-galactosidase gene product was determined using a luminescent assay for β-galactosidase.
as §1, with “construct” for “constructs”, “DNA nucleotides 2030 to 3120 was” for “fragments 2—3sP (SEQ ID NO: 37), 2—3dP (SEQ ID NO: 38), 2—3pP (SEQ ID NO: 36), 14—3P (SEQ ID NO: 34), 16—3P (SEQ ID NO: 31), or 19—3P (SEQ ID NO: 23) were”, “LIF” for “PMA”
To map the approximate location of PMA-initiated or LIF-initiated transcription factor binding different fragments of the hamster INGAP 5′-regulatory region were cloned into pβGal-Basic. The fragments cloned into the reporter construct were 2—3sP (SEQ ID NO: 37), 2—3dP (SEQ ID NO: 38), 2—3pP (SEQ ID NO: 36), 14—3P (SEQ ID NO: 34), 16—3P (SEQ ID NO: 31), or 19—3P (SEQ ID NO: 23). […] To determine the level of promoter activity, the amount of β-galactosidase gene product was determined using a luminescent assay for β-galactosidase. […]

INGAP gene = experiment: Northern RNA analysis of INGAP gene upregulation in AR42J cells; assay type: cell-based; conditions: rat AR42J cells; IL-6 1000 U/ml, 24 hours; FIG. 12
Protocol: To determine if INGAP RNA levels increase after stimulation with a cytokine that signals through STAT, rat amphocrine pancreatic cells, AR42J were treated with IL-6 (1000 U/ml) for 24 hours. Total RNA was extracted from the treated and untreated cells using techniques well known in the art, e.g., using TRIZOL® reagent.
Equal amounts of total RNA (10 μg) were loaded in 2.5% formaldehyde gel and electrophoresed for 4 hours at 70V with a constant circulation of the buffer using a circulating pump. The gel was photographed and washed with water twice at room temperature and soaked in 20×SSC. The gel was transferred to a nylon membrane (Amersham) in 20×SSC overnight following a standard procedure. The membrane was washed with 20×SSC to remove any agar that might have attached to the membrane and baked for 4 hours at […].
One hundred nanograms of hamster INGAP cDNA was labeled using Random Prime Labeling kit (Roche-BMB) and alpha-P^32 dCTP (ICN). Approximately 20 million counts were used for hybridization in 20 ml hybridization buffer following the standard procedure at 42° for overnight. The blot was washed as follows: 2-times at room temperature with 2×SSC for 10 minutes each; 2-times at 42° with 2×SSC for 10 minutes each; 2-times at 55° with 1×SSC for 10 minutes each. The membrane was exposed to the film (XOMAT-Kodak) and kept at −80° C. overnight before developing.

What does the source list for “LIF: human leukemia inhibitory factor (hLIF)”?
promoter activity (β-galactosidase reporter, luminescent assay) ([1]; construct with INGAP 5′-regulatory region nucleotides 2030 to 3120, treated 24 hours, two days after transfection, FIG. 9B): increase the activity of the 5′-regulatory region of mammalian INGAP; promoter activity (β-galactosidase reporter, luminescent assay) ([1]; constructs 2_3sP, 2_3dP, 2_3pP, 14_3P, 16_3P, 19_3P, LIF 1, 10 or 30 ng/ml, 24 hours, FIG. 11): activated the cell reporter constructs

For CCCCCCCCCCCCCC(=O)O[C@@H]1[C@@H](C)[C@@]2(O)[C@@H](C=C(CO)C[C@]3(O)C(=O)C(C)=C[C@@H]23)[C@@H]2C(C)(C)[C@]12OC(C)=O [PMA, phorbol myristate acetate, reference compound], which “promoter activity (β-galactosidase reporter, luminescent assay)” value ([1]; constructs 2_3sP, 2_3dP, 2_3pP, 14_3P, 16_3P, 19_3P, PMA 6, 17, 50, 100 or 300 ng/ml, 24 hours, FIG. 10) is on record?
The value was “activated the cell reporter constructs”.

With “IL-6: cytokine that signals through STAT” as the molecule, how does the “INGAP gene expression (RNA, Northern analysis)” value (INGAP gene) read?
The value was “increase in INGAP gene expression”.
